Calls of active or inactive are those of the source. The calls are words filed in the database; no cut-off is given here.
Assays:
[1] = test system: Strongylocentrotus purpuratus; experiment: Agonist activity at cADPR binding protein in sea urchin egg homogenate assessed as increase in Ca2+ release at 100 uM by Fluo-3 based fluorescence assay relative to control; type: tissue-based
[2] = Agonist activity at cADPR binding protein in sea urchin egg homogenate assessed as increase in Ca2+ release by Fluo-3 based fluorescence assay; type: tissue-based, Strongylocentrotus purpuratus
[3] = Antagonist activity at cADPR binding protein in sea urchin egg homogenate assessed as inhibition of cADPR-induced Ca2+ release by Fluo-3 based fluorescence assay; type: tissue-based, Strongylocentrotus purpuratus
U2OS = experiment: Agonist activity at cADPR binding protein in human U2OS cells expressing GCaMP6M assessed as increase in Ca2+ release at 30 uM by confocal Ca2+ imaging analysis; type: cell-based; settings: filed as agonist

Structure (SMILES): C#CCO[C@@H]1[C@H](O)[C@H]2COP(=O)(O)OP(=O)(O)OC[C@H]3O[C@H]([C@H](O)[C@@H]3O)[n+]3cnc4c(nc(N=[N+]=[N-])n4[C@@H]1O2)c3N
- Activity [1]: < 10%

Structure (SMILES): C#CCO[C@@H]1[C@H](O)[C@H]2COP(=O)(O)OP(=O)([O-])OC[C@H]3O[C@H]([C@H](O)[C@@H]3O)[n+]3cnc4c(ncn4[C@@H]1O2)c3N
- EC50 [2]: 8460 nM

Structure (SMILES): [N-]=[N+]=Nc1nc2c(N)[n+]3cnc2n1[C@@H]1O[C@H](COP(=O)(O)OP(=O)(O)OC[C@H]2O[C@@H]3[C@H](O)[C@@H]2O)[C@@H](O)[C@H]1O
- IC50 [3]: 7 nM

Structure (SMILES): Nc1c2ncn3c2nc[n+]1[C@@H]1O[C@H](COP(=O)([O-])OP(=O)(O)OC[C@H]2O[C@@H]3[C@H](O)[C@@H]2O)[C@@H](O)[C@H]1O
- Activity (U2OS): Active
- EC50 [2]: 110 nM
